BigSolDB 2.1

O=c1[nH]cc(F)c(=O)[nH]1
Conditions	solubility (mole fraction)
in 1,4-dioxane, 290.2 K	0.00112
in 1,4-dioxane, 291.3 K	0.00123
in 1,4-dioxane, 300.9 K	0.00158
in 1,4-dioxane, 305.2 K	0.00176
in 1,4-dioxane, 306.4 K	0.00187
in 1,4-dioxane, 310.4 K	0.00205
in 1,4-dioxane, 313.3 K	0.00218
in 1,4-dioxane, 313.9 K	0.00225
in 1,4-dioxane, 318 K	0.00247
in 1,4-dioxane, 319.5 K	0.00258
in 1,4-dioxane, 322.8 K	0.00284
in 1,4-dioxane, 329.8 K	0.00332
in THF, 279.6 K	0.00246
in THF, 287 K	0.00273
in THF, 293.2 K	0.00289
in THF, 303.8 K	0.00328
in THF, 308.7 K	0.00349
in THF, 314.6 K	0.00367
in THF, 325.2 K	0.00418
in THF, 328.6 K	0.00454
in acetone, 282.9 K	0.00152
in acetone, 290.2 K	0.00175
in acetone, 298.4 K	0.00199
in acetone, 302.5 K	0.00219
in acetone, 305.1 K	0.00229
in acetone, 307.4 K	0.00244
in acetone, 315.2 K	0.0028
in acetone, 316.9 K	0.00299
in acetone, 322.4 K	0.00304
in acetonitrile, 290.3 K	0.00046
in acetonitrile, 294.6 K	0.00053
in acetonitrile, 299.1 K	0.00062
in acetonitrile, 300.3 K	0.00066
in acetonitrile, 306.6 K	0.00081
in acetonitrile, 307.6 K	0.00083
in acetonitrile, 316 K	0.00102
in acetonitrile, 320.2 K	0.00121
in acetonitrile, 329 K	0.00143
in acetonitrile, 332.3 K	0.00162
in ethanol, 281.1 K	0.00099
in ethanol, 286.9 K	0.00124
in ethanol, 291.2 K	0.00137
in ethanol, 297.7 K	0.00167
in ethanol, 306.2 K	0.00206
in ethanol, 309.1 K	0.00216
in ethanol, 314.8 K	0.0026
in ethanol, 315.1 K	0.00267
in ethanol, 322.8 K	0.0032
in ethanol, 323.7 K	0.00329
in ethanol, 325.6 K	0.00366
in ethanol, 329.9 K	0.00399
in ethyl acetate, 291.1 K	0.00041
in ethyl acetate, 297 K	0.00048
in ethyl acetate, 300.6 K	0.00054
in ethyl acetate, 310.8 K	0.00063
in ethyl acetate, 320.3 K	0.00077
in ethyl acetate, 330.6 K	0.00099
in isopropanol, 282.1 K	0.00085
in isopropanol, 284.6 K	0.00089
in isopropanol, 286.8 K	0.00102
in isopropanol, 294.9 K	0.00119
in isopropanol, 301.3 K	0.00147
in isopropanol, 302.4 K	0.00163
in isopropanol, 308 K	0.00188
in isopropanol, 311.6 K	0.00217
in isopropanol, 316.2 K	0.00237
in isopropanol, 318 K	0.00258
in isopropanol, 323 K	0.00301
in isopropanol, 327.5 K	0.00346
in isopropanol, 330 K	0.00381
in methanol, 280 K	0.00165
in methanol, 287.7 K	0.00216
in methanol, 295.8 K	0.00289
in methanol, 306.8 K	0.00379
in methanol, 318.4 K	0.00502
in methanol, 326 K	0.00581
in methanol, 328.8 K	0.00661
in n-butanol, 280.1 K	0.00058
in n-butanol, 283 K	0.00059
in n-butanol, 287.8 K	0.00086
in n-butanol, 299.5 K	0.00103
in n-butanol, 303.4 K	0.00121
in n-butanol, 306.3 K	0.00141
in n-butanol, 314.8 K	0.00182
in n-butanol, 325.8 K	0.0026
in n-butanol, 327 K	0.00267
in n-butanol, 331.5 K	0.00313
in n-propanol, 280.8 K	0.00082
in n-propanol, 282.4 K	0.00089
in n-propanol, 291.2 K	0.00098
in n-propanol, 294.5 K	0.00108
in n-propanol, 298.4 K	0.00121
in n-propanol, 302.2 K	0.00123
in n-propanol, 308.6 K	0.00149
in n-propanol, 313 K	0.00172
in n-propanol, 315.1 K	0.00179
in n-propanol, 318.3 K	0.00208
in n-propanol, 322.3 K	0.00224
in n-propanol, 324.3 K	0.00245
in n-propanol, 326.2 K	0.00263
in water, 280.1 K	0.00091
in water, 282.5 K	0.00093
in water, 290.8 K	0.00124
in water, 294.5 K	0.00147
in water, 304.4 K	0.0021
in water, 312.1 K	0.00288
in water, 317.5 K	0.00337
in water, 323 K	0.00402
